Measured values: patent publication US12486218B2, “Compounds advantageous in the treatment of central nervous system diseases and disorders” (AurimMed Pharma, Inc., priority 2008, dated 2025)
Values belong to the molecule of their own block, whether it stands above or below them.

Legend:
[1] = test system: mice; assay: 6 Hz (minimal clonic seizure) model, mice i.p.; format: in vivo; settings: for ED50: Mus musculus, ip
[2] = in vivo; settings: mouse, ip
[3] = test system: rat dopaminergic N27 cells; assay: N27 protection assay against oxidative stress (H2O2 or MPP+; MTT and LDH); format: cell-based; settings: drug 24 hours before 200 μM H2O2 or 640 μM MPP+
Excerpt: FIGS. 20A-25D data are shown illustrating neuroprotective and neuroregenerative effects observed in rat dopaminergic N27 cells. Rat dopaminergic N27 cells are commonly used in in vitro and in vivo model systems for studying Parkinson's disease. Parkinson's disease is a neurodegenerative disorder of the central nervous system that affects more than 6 million people worldwide. The motor symptoms of Parkinson's disease result from the death of dopamine generating cells in the substantia nigra, a region of the midbrain.
The N27 rat dopaminergic neuron cell line was harvested from E12 rat mesencephalic tissue and was transfected with SV40 to immortalize the cell line. The N27 cell line, when injected into the striata of 6-hydroxydopamine-lesioned rats (an animal model of PD) caused a time-dependent improvement in neurological deficits. This immortalized cell line has been carefully characterized in studies of dopamine biosynthesis, neurotoxicity and used as a dopaminergic neuron model studies.
The N27 in vitro Parkinson's disease model included a test of cell viability and cell toxicity in response to exposure to oxidative stress (e.g., either 200 μM H2O2 or 640 μM MPP+).
Cell viability was tested using the MTT assay. The MTT assay is a colorimetric analysis based on the activities of mitochondrial NAD(P)H-dependent cellular oxidoreductase enzymes. These enzymes are capable of reducing the tetrazolium dye, MTT [3-(4,5-dimethylthiazol-2-yl)-2,5-diphenyltetrazolium] bromide, to an insoluble formazan (purple). […] More viable cells equal more accumulation of the insoluble formazan dye.
Cell toxicity was tested using the […] (LDH) assay. Cells that are stressed secrete LDH. In general, the more cells are stressed, the LDH they secrete into their media. The LDH assay is a reliable colorimetric assay to measure quantitatively the […] (LDH) that is released into the cell culture media from damaged cells as a biomarker for cytotoxicity and cytolysis.
FIGS. 20A-25D present data from two types of assays: protection and recovery assays. In the protection assays, the drug candidate was applied to the cells at various concentrations for 24 hours, followed by the exposure to oxidative stress (either 200 μM H2O2 or 640 μM MPP+) for measuring neuroprotective effect. H2O2 provides a broad measure of oxidative stress, while MPP+ gives a more specific oxidative stress to dopaminergic neurons.
The protection assay results are shown in panels A-C of FIGS. 20-25 In the recovery assays, the cells were first damaged by exposure to H2O2 and then various concentrations of the drug were applied to the cells. The results for the recovery assays are shown the D panels of FIGS. 20-25.

[4] = test system: type II SMA fibroblasts (GM03813); assay: SMN protein localization, gem counting in type II SMA fibroblasts; format: cell-based; settings: 100 nM-10 μM, 5 days
Protocol: To validate the SMN2 promoter and exon 7 screens, the effects of compounds H, H (acid form), AY, F, BX, and BY were evaluated on the basis of expression and localization of SMN protein in type II SMA fibroblasts (GM03813). In a normal cell, SMN protein localized within the nucleus to discreet foci known as gems. In SMN-deficient SMA cells, the number of gems is greatly diminished. Although the function of gems is unknown, it is believed that they are somehow involved in the snRNP assembly function of SMN. Gem counting can, therefore, be considered an assay for SMN function.
GM03813 fibroblasts were treated with different doses (100 nM-10 μM) of compounds H, H (acid form), AY, F, BX, and BY for 5 days. SMN immunostaining was then completed on these cells and the number of gems was counted in 100 randomly-selected nuclei. […] In fact, the gem counts at the highest dose of compound H approach those observed for carrier fibroblasts (GM03814). When compared against treatment with 1 μM D157495—a D156844 derivative, all of the compounds tested performed as well as or, even better than D157495.

[5] = test system: mice; assay: Mouse formalin pain model; format: in vivo; settings: 76 mg/kg i.p., at 0.5 hours
[6] = test system: rats; assay: Minimal motor impairment (MID50), rats p.o.; format: in vivo
[7] = test system: rats; assay: s.c. MET test, rats p.o.; format: in vivo; settings: Rattus norvegicus, p.o.
[8] = test system: mice; assay: Subcutaneous Metrazol Seizure threshold (s.c. MET) test, mice i.p.; format: in vivo; settings: for ED50: Mus musculus
[9] = test system: rats; assay: Hippocampal Kindled Rats model; format: in vivo; settings: Rattus norvegicus
[10] = test system: mice; assay: Minimal motor impairment (MID50), mice i.p.
[11] = test system: C3A hepatocyte cells; assay: ACTIVTox LDH release assay; format: cell-based
Protocol: Compounds A, I, H, and F were tested by Stem Cell Innovations, Inc. (Houston, TX) in their ACTIVTox® Human Liver Cell-based assays (using C3A hepatocyte cells). Specifically, the compounds were tested in the LDH release assay, which determines the release of Lactate DeHydrogenase (an indicator of cell death) at various concentrations of test compound.
A concentration of 100 µM of test compound is a much higher level of exposure to liver cells than would ever be expected under physiological conditions. Therefore, using 100 μM as a standard test concentration (for comparative purposes), the ratio of the absorbance (which measures the level of LDH release) resulting from the presence of the test compound versus the negative control is a value known as the “average (or mean) fold control” (Average Fold Control=Average of Absorbance/Average of Negative Control).

[12] = test system: rats; assay: Pilocarpine-induced Status Epilepticus in Rats (prevention; intervention @ 30 min); settings: Rattus norvegicus, read-out: Prevention, Protection
[13] = test system: mice; assay: Maximal Electroshock Seizure (MES) test, mice i.p.; format: in vivo; settings: for ED50: Mus musculus, ip
[14] = test system: mice; assay: Corneal kindled mouse model; format: in vivo; settings: for ED50: Mus musculus
[15] = test system: mice; assay: Audiogenic Seizure susceptible (AGS) test, mice i.p.; format: in vivo; settings: Mus musculus, ip
[16] = test system: rats; assay: MES test, rats p.o.; format: in vivo
[17] = test system: mice; assay: Effects observed in mice after i.p. injection (CNS stimulation, diarrhea); format: in vivo; settings: mice
Protocol: In addition, two further tertiary amide compounds, BJ and BT, produced diarrhea in the mice 30 minutes after i.p. injection of 100 mg/kg of each.

[18] = test system: SMN2 promoter; assay: SMN2 promoter β-lactamase reporter assay in NSC34 motor neuron-like cells; format: cell-based; settings: treatment for 19 hours at a concentration of 1 μM
Protocol: FIG. 30 illustrates a screen for SMN2 expression of a number of compounds described herein.
SMN2 promoter activity was measured using NSC34 motor neuron-like cells stably transfected with a β-lactamase (BLA) reporter gene under the control of a 3.4-kilobase fragment of the SMN2 promoter. D156844 was used as a positive control for this assay.

Structure (SMILES): C[C@@H](CC(N)=O)c1ccc(OC(F)(F)F)cc1 (single isomer, unassigned) [BY, S-(+)-3-(4-Trifluoromethoxy-phenyl)butyramide]
6 Hz (32 mA), fraction of animals ([1]; mice i.p., 100 mg/kg @ 0.25 hr): 1/4
6 Hz (32 mA), fraction of animals ([1]; mice i.p., 100 mg/kg @ 0.5 hr): 2/4
TD50 at 0.25 hr [2]: 104 mg/kg
neuroprotective effect against H2O2 and MPP+ oxidative stresses (MTT and LDH assays) [3]: potent dose-dependent neuroprotective effects
gem counts (SMN immunostaining, 100 nuclei) [4]: increase gem counts in a dose-dependent manner
pain response, acute phase [5]: 53 % of the control
pain response, inflammatory phase [5]: 24 % of the control

Structure (SMILES): CC(CC(N)=O)c1ccc(C(F)(F)F)cc1 (stereo not drawn) [F, 3-[4-(trifluoromethyl)-phenyl]butyramide]
MID50 [6]: >500 (none observed) mg/kg
ED50 [7]: > 250 mg/kg
ED50 ([8]; mice i.p., @ 1.0 hr): 85.5 mg/kg
ED50 ([8]; mice, i.p.): 85.5 mg/kg
ED50 [9]: 29 mg/kg
MID50 (TD50) ([10]; mice i.p., @ 0.25 hr): 208.37
MID50 (median minimal motor impairment dose) ([10]; mice, i.p.): 208.37 mg/kg
ED50 ([1]; mice i.p., @ 0.5 hrs, read-out: 6 Hz (32 mA) ED50): 80.8 mg/kg
ED50 ([1]; mice, i.p., read-out: 6 Hz ED50): 80.8 mg/kg
TD50 [2]: > 200 mg/kg
neuroprotective effect against H2O2 and MPP+ oxidative stresses (MTT and LDH assays) [3]: statistically significant, dose-dependent neuroprotection
LDH release, mean fold control ([11]; at 100 μM, C3A hepatocyte cells, value below 1.75 = no cyto- or hepatotoxic activity): 1.47
cyto- or hepatotoxicity, ACTIVTox data ([11]; at physiologically relevant concentrations (i.e., <100 µM)): not cyto- or hepatotoxic
responders at 65 mg/kg [12]: 14%
ED50 ([13]; mice): 85.3 mg/kg
ED50 ([13]; mice i.p., @ 2.0 hrs): 85.3 mg/kg
gem counts (SMN immunostaining, 100 nuclei) [4]: increase gem counts in a dose-dependent manner
ED50 ([14]; ip, mice i.p., @1.0 hrs, read-out: Corneal Kindled ED50): 60.6 mg/kg
ED50 ([14]; read-out: ED50, corneal kindled mouse model): 60.6 mg/kg
seizure score, corneal kindled mouse model ([14]; at 100 mg/kg): zero
ED50 ([15]; mice): 41.3 mg/kg
ED50 ([15]; mice i.p., @ 2.0 hrs): 41.3 mg/kg
ED50 ([16]; Rattus norvegicus, po): 26.4 mg/kg

CNS-stimulating effect observed ([17]; 300 mg/kg i.p., 30 minutes after injection): tremors
Structure (SMILES): CCN(C)C(=O)CC(C)c1ccc(OC(F)(F)F)cc1 (stereo not drawn) [BE, N-Ethyl-N-methyl-3-(4-trifluoromethoxy-phenyl)-butyramide]
6 Hz (32 mA), fraction of animals ([1]; mice i.p., 100 mg/kg @ 0.5 hr): 2/4 @ 0.5 hr,
MES, fraction of animals ([13]; mice i.p., 100 mg/kg @ 0.5 hr): 1/3 @
activity in the MES test ([13]; mice, at 100 mg/kg): activity
activity in the MES test ([16]; at 30 mg/kg): activity

CNS-stimulating effect observed ([17]; on injection): vocalization and hyperactivity
duration of vocalization and hyperactivity ([17]; on injection): 5 to 6 min
Structure (SMILES): CC(CC(=O)N1CCCCC1)c1ccc(OC(F)(F)F)cc1 (stereo not drawn) [BH, 1-Piperidin-1-yl-3-(4-trifluoromethoxy-phenyl)-butan-1-one]
SMN2 promoter activity [18]: increased SMN2 promoter activity
activity in the s.c. MET test ([8]; mice, at 300 mg/kg): activity
